Results published in patent US20250163072A1, “MACROCYCLIC COMPOUNDS FOR THE TREATMENT OF CANCER” (Hoffmann-La Roche Inc., priority 2021, published 2025).

Assays:
KRAS G12C-BRAF complex = KRAS G12C-BRAF complex (Homo sapiens (Human), UniProt P01116+P62937, G12C); assay: KRAS-BRAF with CYPA (50 nM) interaction assay (TR-FRET), G12C; assay type: binding; conditions: GMPPNP loaded 6His-KRAS, GST-BRAF RBD
Experimental: (§1) In this example, TR-FRET was also used to measure the compound or compound-CYPA dependent disruption of the KRAS G12C-BRAF complex. This protocol was also used to measure disruption of KRAS G12D or KRAS G12V binding to BRAF by a compound of the invention, respectively. In assay buffer containing 25 mM HEPES PH=7.4 (4-(2-hydroxyethyl)-1-piperazineethanesulfonic acid, Thermo, 15630080), 0.002% Tween20, 0.1% BSA, 100 mM NaCl, 5 mM MgCl2, 10 μM GMPPNP (Guanosine 5'-[β,γ-imido]triphosphate trisodium salt hydrate, Sigma, G0635), tagless CYPA, GMPPNP loaded 6His-KRAS proteins, and GST-BRAF^RBD were mixed in a well of a 384-well assay plate at final concentrations of 50 nM, 6.25 nM and 1 nM, respectively. Compound was present in plate wells as a 16-point 3-fold dilution series starting at a final concentration of 10 μM and incubated for 3 hours. A mixture of MAb Anti-6His-XL665 (Cisbio, 61HISXLB) and Mab anti-GST-TB cryptate (Cisbio, 61GSTTLB) was then added at a final concentration of 6.67 nM and 0.21 nM, respectively, and the plate was incubated for an additional 1.5 hours. TR-FRET signal was read on a […] microplate reader (Ex320 nm, Em 665/615 nm). Compounds that facilitate disruption of the KRAS-BRAF complex were identified as those eliciting a decrease in the TR-FRET ratio relative to DMSO control wells.

[1] = biological target: KRAS G12D binding to BRAF (Homo sapiens (Human), UniProt P01116+P62937, G12D); assay: KRAS-BRAF with CYPA (50 nM) interaction assay (TR-FRET), G12D; conditions: GMPPNP loaded 6His-KRAS, GST-BRAF RBD
KRAS G12D binding to BRAF, sequence (P01116-2 other isoform, or with tags, fused parts or gaps G12D): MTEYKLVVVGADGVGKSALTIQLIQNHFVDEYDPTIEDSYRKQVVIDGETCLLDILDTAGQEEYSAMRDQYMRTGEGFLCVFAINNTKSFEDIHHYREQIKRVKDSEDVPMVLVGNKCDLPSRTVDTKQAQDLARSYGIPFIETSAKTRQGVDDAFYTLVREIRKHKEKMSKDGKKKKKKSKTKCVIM
KRAS G12D binding to BRAF, sequence (P62937 whole entry): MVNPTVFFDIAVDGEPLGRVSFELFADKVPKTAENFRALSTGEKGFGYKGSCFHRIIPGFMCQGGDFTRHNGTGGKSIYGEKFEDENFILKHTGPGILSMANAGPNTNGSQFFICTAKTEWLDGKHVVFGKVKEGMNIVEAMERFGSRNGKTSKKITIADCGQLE
Experimental: as §1

[2] = biological target: KRAS G12V binding to BRAF (Homo sapiens (Human), UniProt P01116+P62937, G12V); assay: KRAS-BRAF with CYPA (50 nM) interaction assay (TR-FRET), G12V; conditions: GMPPNP loaded 6His-KRAS, GST-BRAF RBD
KRAS G12V binding to BRAF, sequence (P01116-2 other isoform, or with tags, fused parts or gaps G12V): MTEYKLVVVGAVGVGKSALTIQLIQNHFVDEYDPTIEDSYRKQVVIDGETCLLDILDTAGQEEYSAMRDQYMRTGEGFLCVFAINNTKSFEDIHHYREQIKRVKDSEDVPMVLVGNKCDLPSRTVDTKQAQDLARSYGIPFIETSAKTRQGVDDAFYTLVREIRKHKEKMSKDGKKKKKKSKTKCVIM
KRAS G12V binding to BRAF, sequence (P62937 whole entry): as the sequence (P62937 whole entry) above
Experimental: as §1

[3] = system: KRAS G12C in NCI-H358 cells; assay: pERK inhibition assay, NCI-H358; assay type: cell-based, human; conditions: Homo sapiens, 4 hours incubation
Experimental: (§2) This assay is to measure the ability of test compounds in inhibiting the phosphorylation of ERK, the downstream signaling of KRAS G12C in NCI-H358 cells, KRAS G12D in AGS cells, and KRAS G12V in SW620. NCI-H358 (ATCC-CRL5807) cells, AGS (ATCC-CRL-1739) cells, SW620 (ATCC-CCL-227) cells were all grown and maintained using RPMI-1640 medium (Thermo Fisher Scientific) with 10% fetal bovine serum and 1% penicillin/streptomycin. On the day prior to compound addition, cells were plated in tissue culture-treated 96 well plates (Corning-3699) at a density of 30,000 cell/well, 20,000 cell/well, 30,000 cell/well for NCI-H358, AGS and SW620 respectively, and allowed for attachment overnight. Diluted compounds were then added in a final concentration of 0.5% DMSO. After 4 hours of incubation, the medium was removed, 100 μL of 4% formaldehyde was added, and the assay plates were incubated at room temperature for 20 minutes. The plates were then washed once with phosphate buffered saline (PBS), and permeabilized with 100 μL of chilled methanol for 10 minutes. Non-specific antibody binding to the plates was blocked using 50 μL 1×BSA blocking buffer (Thermo-37520, 10-fold dilution by Phosphate-Buffered Saline Tween (PBST) for at least 1 hour at room temperature. The amount of phosphor-ERK was determined using an antibody specific for phosphorylated form of ERK. Primary antibody (pERK, CST-4370, Cell Signaling Technology) was diluted 1:300 in blocking buffer, with 50 μL aliquoted to each well, and incubated overnight at 4° C. Cells were washed five times for 5 minutes with PBST. Secondary antibody (HRP-linked anti-rabbit IgG, CST-7074, Cell Signaling Technology) was diluted 1:1000 in blocking buffer, and 50 μL was added to each well and incubated 1-2 hours at room temperature. Cells were washed 5 times for 5 minutes with PBST, 100 μL TMB ELISA substrate (abcam-ab171523) were added and gently shake for 20 minutes. 50 μL stop solution (abcam-ab171529) were added, and then read the signal (OD450) by EnVision. IC50 was determined by fitting a 4-parameter sigmoidal concentration response model.

KRAS G12V in SW620 = assay: pERK inhibition assay, SW620; assay type: cell-based, human; conditions: Homo sapiens, SW-620, SW620 cells, 4 hours incubation
Experimental: as §2

NCI-H358 cells = assay: Cell viability assay, NCI-H358; assay type: cell-based, human; conditions: Homo sapiens, NCI-H358, 72 hours, Cell Counting Kit-8, read-out: G12C IC50
Experimental: (§3) The purpose of this cellular assay was to determine the effects of test compounds on the proliferation of human cancer cell lines NCI-H358 (ATCC-CRL5807) cells, AGS (ATCC-CRL-1739) cells, SW620 (ATCC-CCL-227) over a 3-day treatment period by quantifying the amount of NADPH present at endpoint using Cell Counting Kit-8. Cells were seeded at 5,000 cells/well (NCI-H358), 2,000 cells/well (AGS) 2,000 cells/well (SW620) in 96-well assay plates (Corning-3699) and incubated overnight. On the day of the assay, diluted compounds were then added in a final concentration of 0.5% DMSO. After 72 hours incubation, a tenth of the volume of cell counting kit 8(Dnjindo-CK04) was added into each well. Read the signal (OD450 minus OD650) using EnVision after 2 hours incubation. IC50 was determined by fitting a 4-parameter sigmoidal concentration response model.

SW620 cells = assay: Cell viability assay, SW620; assay type: cell-based, human; conditions: Homo sapiens, SW-620, SW620, 72 hours, Cell Counting Kit-8, read-out: G12V IC50
Experimental: as §3

KRAS G12D in AGS cells = assay: pERK inhibition assay, AGS; assay type: cell-based, human; conditions: Homo sapiens, 4 hours incubation
Experimental: as §2

AGS cells = assay: Cell viability assay, AGS; assay type: cell-based, human; conditions: Homo sapiens, 72 hours, Cell Counting Kit-8, read-out: G12D IC50
Experimental: as §3

[4] = GSH reaction rates (inherent GSH reactivity); assay type: in vitro ADME; conditions: 6 h, 1 μM, pH 7.4
Experimental: Therefore Strategy to minimize the GSH metabolism is very critical. Short T1/2 in inherent GSH reaction indicated high GSH reaction rate. Thus T1/2 in inherent GSH reaction assay was determined for the screening of candidates. Reference compounds and compounds of this invention potentially could form conjugation with GSH either through halogenated moieties substitution reaction or direct Michael addition reaction. This test was therefore performed to check GSH reactivity of listed compounds. For inherent GSH reactivity determination, compounds at 1 μM were incubated at 37° C. with and without 5 mM GSH for 0, 0.5, 1, 2, 4 and 6 h in 100 mM potassium phosphate buffer at pH 7.4. At the end of the designated time points, samples were quenched with acetonitrile containing 10 mM N-ethylmaleimide and an internal standard. Quenched samples were centrifuged, and supernatants were analyzed by LC-MS/MS for compound quantification.

[5] = Human hepatocytes stability assay; assay type: in vitro ADME
Experimental: The hepatocyte stability assay measures the rate of disappearance of a compound from incubations with cryopreserved suspension hepatocytes from human. Positive controls, including Midazolam, Raloxifene and Dextromethorphan, are included in every experiment. Incubations consist of 1 μM tested compound and suspension of human hepatocytes (1×10^6 cells/mL) in supplemented Williams' E Medium with […] and 0.5% Penicillin-streptomycin. The hepatocyte suspension was incubated with intermittent shaking 900 rpm at 37° C., in a 5% CO2 incubator. The reaction was stopped by adding methanol containing internal standard (2 μM Tolbutamide) at 2, 10, 20, 40, 60 and 120 minutes after compound addition, depletion of the parent compound was monitored by LC-MS/MS analysis.

KRAS G12C-BRAF complex, sequence (P01116-2 other isoform, or with tags, fused parts or gaps G12C): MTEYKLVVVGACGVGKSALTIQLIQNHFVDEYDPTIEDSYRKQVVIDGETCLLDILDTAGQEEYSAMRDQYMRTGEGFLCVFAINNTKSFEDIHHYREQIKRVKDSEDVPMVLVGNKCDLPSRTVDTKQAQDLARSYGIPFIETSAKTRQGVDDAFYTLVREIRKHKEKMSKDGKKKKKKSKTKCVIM
KRAS G12C-BRAF complex, sequence (P62937 whole entry): as the sequence (P62937 whole entry) above

Remaining at 6 hr in GSH (%) [4] [%]	CL_hep (Human) ([5]; 1 μM compound, human hepatocytes 1×10^6 cells/mL) [mL/min/kg]	Compound	IC50 (KRAS G12C-BRAF complex) [nM]	IC50 [1] [nM]	IC50 [2] [nM]	IC50 [3] [nM]	IC50 (KRAS G12V in SW620) [nM]	IC50 (NCI-H358 cells) [nM]	IC50 (SW620 cells) [nM]	IC50 (KRAS G12D in AGS cells) [nM]	IC50 (AGS cells) [nM]	Clearance Category ([5]; human hepatocytes)
–	–	CCn1c(-c2cccnc2[C@H](C)OC)c2c3cc(ccc31)-c1cc(O)cc(c1)C[C@H](NC(=O)[C@H](C(C)C)N(C)C(=O)[C@H]1CCN(C(=O)/C=C/n3cncn3)C1)C(=O)N1CCC[C@H](N1)C(=O)OCC(C)(C)C2 (atropisomer, axis not shown; (M)) [Example 9, (3S)-N-[(1S)-1-[[(8S,14S)-22-ethyl-4-hydroxy-(21M)-21-[2-[(1S)-1-methoxyethyl]-3-pyridyl]-18,18-dimethyl-9,15-dioxo-16-oxa-10,22,28-triazapentacyclo[18.5.2.12,6.110,14.023,27]nonacosa-1(26),2,4,6(29),20,23(27),24-heptaen-8-yl]carbamoyl]-2-methyl-propyl]-N-methyl-1-[(E)-3-(1,2,4-triazol-1-yl)prop-2-enoyl]pyrrolidine-3-carboxamide]	38	1930	103	229	742	29	853	–	–	–
–	–	CO[C@@H](C)c1ncc(N2CCN(C)CC2)cc1-c1c2c3cc(ccc3n1CC(F)(F)F)-c1csc(n1)C[C@H](NC(=O)[C@H](C(C)C)N(C)C(=O)C1(F)CCN(C(=O)[C@H](F)Cl)CC1)C(=O)N1CCC[C@H](N1)C(=O)OCC(C)(C)C2 (atropisomer, axis not shown; (M)) [Example 20, 1-[(2R)-2-chloro-2-fluoro-acetyl]-4-fluoro-N-[(1S)-1-[[(7S,13S)-(20M)-20-[2-[(1S)-1-methoxyethyl]-5-(4-methylpiperazin-1-yl)-3-pyridyl]-17,17-dimethyl-8,14-dioxo-21-(2,2,2-trifluoroethyl)-15-oxa-4-thia-9,21,27,28-tetrazapentacyclo[17.5.2.12,5.19,13.022,26]octacosa-1(25),2,5(28),19,22(26),23-hexaen-7-yl]carbamoyl]-2-methyl-propyl]-N-methyl-piperidine-4-carboxamide]	11	415	1170	1	3	0.2	5	11	18	–
–	–	CCn1c(-c2cc(N3CCN(CC(F)(F)F)CC3)cnc2[C@H](C)OC)c2c3cc(ccc31)-c1csc(n1)C[C@H](NC(=O)[C@H](C(C)C)N(C)C(=O)[C@H]1CCN(C(=O)[C@H](F)Cl)C1)C(=O)N1CCC[C@H](N1)C(=O)OCC(C)(C)C2 (atropisomer, axis not shown; (M)) [Example 26, (3S)-1-[(2R)-2-chloro-2-fluoro-acetyl]-N-[(1S)-1-[[(7S,13S)-21-ethyl-(20M)-20-[2-[(1S)-1-methoxyethyl]-5-[4-(2,2,2-trifluoroethyl)piperazin-1-yl]-3-pyridyl]-17,17-dimethyl-8,14-dioxo-15-oxa-4-thia-9,21,27,28-tetrazapentacyclo[17.5.2.12,5.19,13.022,26]octacosa-1(25),2,5(28),19,22(26),23-hexaen-7-yl]carbamoyl]-2-methyl-propyl]-N-methyl-pyrrolidine-3-carboxamide]	36	2720	200	1	13	< 0.6	45	35	140	–
–	–	CCn1c(-c2cccnc2[C@H](C)OC)c2c3cc(ccc31)-c1cc(O)cc(c1)C[C@H](NC(=O)[C@H](C(C)C)N(C)C(=O)C1CC(C=O)C1)C(=O)N1CCC[C@H](N1)C(=O)OCC(C)(C)C2 (stereo partly drawn) [Example 3, N-[(1S)-1-[[(8S,14S)-22-ethyl-4-hydroxy-(21M)-21-[2-[(1S)-1-methoxyethyl]-3-pyridyl]-18,18-dimethyl-9,15-dioxo-16-oxa-10,22,28-triazapentacyclo[18.5.2.12,6.110,14.023,27]nonacosa-1(26),2,4,6(29),20,23(27),24-heptaen-8-yl]carbamoyl]-2-methyl-propyl]-3-formyl-N-methyl-cyclobutanecarboxamide]	1	1030	110	9	245	41	684	683	1300	–
100	5.5	CCn1c(-c2cccnc2COC)c2c3cc(ccc31)-c1cc(O)cc(c1)C[C@H](NC(=O)[C@H](C(C)C)N(C)C(=O)C1CN(C(=O)[C@H](F)Cl)C1)C(=O)N1CCC[C@H](N1)C(=O)OCC(C)(C)C2 [RM461-A]	–	–	–	49	7020	45	6880	> 10000	7920	low (CL_hep (mL/min/kg)<6.96 is low clearance)
